The nature of the series: Particle size after micronizing in a micronizer. The format is physicochemical. The settings on record: pure dry leflunomide micronized in a micronizer (Example 1). From the text: Pure dry leflunomide was micronized in a micronizer. The result was micronized leflunomide of a particle size of less than 5 micrometer.

SMILES strings stand for the structures.

With `Cc1oncc1C(=O)Nc1ccc(C(F)(F)F)cc1` [micronized leflunomide, N-(4′-trifluoromethylphenyl)-5-methylisoxazole-4-carboxamide], the particle size entry is on record as “less than 5 micrometer”.

For the origin of these results see US20030032662A1, “Micronized leflunomide” (priority 2000, published 2003).
